Laboratory results from patent US20180321224A1, “COMPOSITIONS AND METHODS FOR INCREASING HEPATOCYTE FUNCTIONAL LIFETIME IN VITRO” (Colorado State University Research Foundation, priority 2015, published 2018).
Read-outs that look alike come from different tables or passages of the source.

Key:
[1] = system: primary human hepatocytes in micropatterned co-cultures (MPCCs); assay: Hepatotoxicity screening in MPCCs pre-cultured in physiologic medium (urea synthesis); settings: for Calculated TC50 (interpolated concentration where urea synthesis drops below 50% of the vehicle control): MPCCs in physiologic medium for 10 days, treated 2 times over 5 days in serum free medium, vehicle DMSO
Procedure: Therefore, a drug screen with cultures after they were subjected to physiologic medium for 10 days was carried out (FIG. 5). […] Drug treatments were carried out in serum free medium to prevent potential drug-protein interactions.
Urea synthesis and glucose production was quantified using previously described methods. Since human serum contains significant amounts of […], an alternative protocol to quantify MPCC albumin production was used. Specifically, after 2 and 3 weeks of culture, cultures were washed 3 times with 1×PBS, and then incubated for 24 hours in serum free medium. Albumin was then measured in this medium using a sandwich ELISA method. To account for potential residual albumin in cell culture medium, any differences in albumin production between cultures incubated in 5%, 7.5% and 10% serum were examined. […] Enzyme activity was assessed using the methods previously described.
Drug toxicity and enzyme induction were assessed as previously described.

[2] = average maximal drug concentration observed in patients after administering the drug; cited from earlier work
[3] = after 2 treatments over 5 days at 25*Cmax and 100*Cmax, serum free medium, MPCCs pre-cultured in physiologic medium 10 days

| Compound | Toxicity categorization by urea synthesis in MPCC supernatants (toxic if below 50% of vehicle control) [1] | Calculated TC50 (interpolated concentration where urea synthesis drops below 50% of the vehicle control) [1] | Toxicity categorization by urea synthesis in MPCC supernatants (toxic if below 50% of vehicle control) [1, 3] | Cmax [2] |
| --- | --- | --- | --- | --- |
| CC(=O)Oc1ccccc1C(=O)O [aspirin] | no significant loss in urea synthesis | – | – | – |
| C[C@@H]1C[C@H]2[C@@H]3CCC4=CC(=O)C=C[C@]4(C)[C@@]3(F)[C@@H](O)C[C@]2(C)[C@@]1(O)C(=O)CO [dexamethasone] | no significant loss in urea synthesis | – | – | – |
| Clc1ccc(COC(Cn2ccnc2)c2ccc(Cl)cc2Cl)c(Cl)c1 (stereo not shown) [miconazole] | no significant loss in urea synthesis | – | – | – |
| C[C@]12C=CC(=O)C=C1CC[C@@H]1[C@@H]2C(=O)C[C@@]2(C)[C@H]1CC[C@]2(O)C(=O)CO [prednisone] | no significant loss in urea synthesis | – | – | – |
| piroxicam | – | 2901 µM | toxic | 5.13 µM |
| troglitazone | – | 1555 µM | toxic | 6.39 µM |
